Source: patent publication US8551959B2, “Glycolipid and use thereof” (RIKEN, priority 2008, dated 2013)
Entries after “also recorded” stand apart in the source; their conditions may differ.

Columns and labels:
[1] = system: IFN-γ; experiment: IFN-γ content in serum (sandwich ELISA) after tail vein administration of synthetic glycolipid to mice; assay type: in vivo, C57BL/6 mice; conditions: for IFN-γ production level in serum compared with α-GalCer / IFN-γ production level in serum compared with α-GalCer and carba-glycolipid A: 6-60 hr; for IFN-γ production level in serum compared with α-GalCer and carba-glycolipid A: 100 μg/kg body weight, FIG. 1
Description: DMSO solutions (1 mg/mL concentration) of α-GalCer, carba-glycolipid A, compound 2-9, compound 3-4, compound 3-7 and compound 3-10 were prepared. The above-mentioned DMSO solutions were diluted with saline (manufactured by Otsuka Pharmaceutical Co., Ltd.) containing 0.5% Tween 20 (Bio-Rad) such that the dose would be 100 μg/kg body weight when 200 μL is administered to one mouse from the tail vein.
Each of the prepared solutions (200 μL) of carba-glycolipid A, compound 2-9, compound 3-4, compound 3-7 and compound 3-10 was injected to C57BL/6 mice (5 per group) from the tail vein. α-GalCer was used as a control substance, and 200 μL of α-GalCer solution prepared to a dose of 100 μg/kg body weight according to a similar method was injected from the tail vein. A group administered with a medium (200 μL of saline containing 0.5% Tween 20) was taken as a negative control. The blood (80 μL) was taken from the orbital plexus venosus 6, 12, 24, 36, 48 and 60 hr after administration, and the serum was prepared.
The content of IFN-γ in the serum after lapse of 6, 12, 24, 36, 48 and 60 hr from the administration was measured by sandwich ELISA (ENDOGEN). The measurement results (average value) of the IFN-γ production level and the standard deviation (STDEV) thereof are shown in FIG. 1.
By a method similar to Experimental Example 1, the content of IFN-γ in the serum after lapse of 6, 12, 24, 36, 48 and 60 hr from the administration of α-GalCer, compound 2-9, compound 3-4, compound 3-7, compound 3-10, compound 3-13 and compound 3-16 was measured. The measurement results (average value) of the IFN-γ production level and the standard deviation (STDEV) thereof are shown in FIG. 4.
By a method similar to Experimental Example 1 except that the dose of α-GalCer was 2 μg/mouse and the dose of compound 2-9 was 2 μg/mouse, 0.2 μg/mouse, 0.02 μg/mouse, 0.002 μg/mouse or 0.0002 μg/mouse, the content of IFN-γ in the serum after lapse of 6, 12, 24, 36, 48 and 60 hr from the administration of α-GalCer and compound 2-9 was measured. The measurement results (average value) of the IFN-γ production level and the standard deviation (STDEV) thereof are shown in FIG. 5.

[2] = non-patent document 7; cited from earlier work
[3] = system: IL-12; experiment: IL-12 content in serum (Cytometric bead array) after tail vein administration of synthetic glycolipid to mice; assay type: in vivo, C57BL/6 mice; conditions: Experimental Example 3; 2, 0.2 or 0.02 μg/mouse; 3 and 6 hr; FIG. 9
Description: (§1) DMSO solutions (1 mg/mL concentration) of α-GalCer, carba-glycolipid A, compound 2-9, compound 3-4, compound 3-7 and compound 3-10 were prepared. The above-mentioned DMSO solutions were diluted with saline (manufactured by Otsuka Pharmaceutical Co., Ltd.) containing 0.5% Tween 20 (Bio-Rad) such that the dose would be 100 μg/kg body weight when 200 μL is administered to one mouse from the tail vein. […]
The content of IL-12 in the serum after lapse of 3, 6 and 12 hr from the administration was measured by Cytometric bead array system (BD Biosciences), which is one kind of the ELISA method. […]
By a method similar to Experimental Example 1, the content of IL-12(p70) in the serum after lapse of 3 and 6 hr from the administration of α-GalCer, compound 2-9, compound 3-4, compound 3-7, compound 3-10, compound 3-13 and compound 3-16 was measured. […]
By a method similar to Experimental Example 1 except that the dose of α-GalCer and compound 2-9 was 2 μg/mouse, 0.2 μg/mouse or 0.02 μg/mouse, the content of IL-12(p70) in the serum after lapse of 3 and 6 hr from the administration of α-GalCer and compound 2-9 was measured. […]

[4] = system: IL-4; experiment: IL-4 content in serum (Cytometric bead array) after tail vein administration of synthetic glycolipid to mice; assay type: in vivo, C57BL/6 mice; conditions: Experimental Example 3; 2, 0.2 or 0.02 μg/mouse; 3 and 6 hr; FIG. 7
Description: as §1
The content of IL-4 in the serum after lapse of 3, 6 and 12 hr from the administration was measured by Cytometric bead array system (BD Biosciences), which is one kind of the ELISA method. […]
By a method similar to Experimental Example 1, the content of IL-4 in the serum after lapse of 3 and 6 hr from the administration of α-GalCer, compound 2-9, compound 3-4, compound 3-7, compound 3-10, compound 3-13 and compound 3-16 was measured. […]
By a method similar to Experimental Example 1 except that the dose of α-GalCer and compound 2-9 was 2 μg/mouse, 0.2 μg/mouse or 0.02 μg/mouse, the content of IL-4 in the serum after lapse of 3 and 6 hr from the administration of α-GalCer and compound 2-9 was measured. […]

[5] = system: human NKT cells; conditions: cited from earlier work
[6] = system: NKT cells; conditions: non-patent document 10; cited from earlier work
[7] = Experimental Example 2, conclusion from IFN-γ, IL-4 and IL-12 levels
[8] = Experimental Example 2, tail vein, FIG. 4
[9] = Experimental Example 1, tail vein
[10] = Experimental Example 1, conclusion from IFN-γ, IL-4 and IL-12 levels

| SMILES | Selective induction of IFN-γ production compared to α-GalCer [1, 7] | IFN-γ production level in serum compared with α-GalCer [1, 8] | IFN-γ production level in serum compared with α-GalCer and carba-glycolipid A [1, 9] | Selective induction of IFN-γ production compared to α-GalCer and carba-glycolipid A [1, 10] | other results |
| --- | --- | --- | --- | --- | --- |
| CCCCCCCCCCCCCCCCCCCCCCCCCC(=O)N[C@@H](CO[C@H]1OC(COCC)[C@H](O)[C@H](O)C1O)[C@H](O)[C@H](O)CCCCCCCCCCCCCC (stereo partly shown) [compound 3-13] | selectively induced production of IFN-γ in larger amounts | larger amount of IFN-γ than α-GalCer | – | – | – |
| CCCCCCCCCCCCCCCCCCCCCCCCCC(=O)N[C@@H](CO[C@H]1OC(CF)[C@H](O)[C@H](O)C1O)[C@H](O)[C@H](O)CCCCCCCCCCCCCC (stereo partly shown) [compound 3-7] | selectively induced production of IFN-γ in larger amounts | larger amount of IFN-γ than α-GalCer | larger amount of IFN-γ than α-GalCer and carba-glycolipid A | selectively induced production of IFN-γ in larger amounts | – |
| CCCCCCCCCCCCCCCCCCCCCCCCCC(=O)N[C@@H](CO[C@H]1OC(COCCC)[C@H](O)[C@H](O)C1O)[C@H](O)[C@H](O)CCCCCCCCCCCCCC (stereo partly shown) [compound 3-16] | selectively induced production of IFN-γ in larger amounts | larger amount of IFN-γ than α-GalCer | – | – | – |
| CCCCCCCCCCCCCCCCCCCCCCCCCC(=O)N[C@@H](COC1OC(CO)C(O)C(O)C1O)[C@H](O)[C@H](O)CCCCCCCCCCCCCC (stereo partly drawn) [α-GalCer, reference compound] | – | – | – | – | IFN-γ/IL-4 ratio ([1]; Experimental Example 1): 2; Immunostimulatory activity in a series of synthesis analogs [2]: shows the strongest activity |
| CCCCCCCCCCCCCCCCCCCCCCCCCC(=O)N[C@@H](CO[C@H]1OC(C)[C@H](O)[C@H](O)C1O)[C@H](O)[C@H](O)CCCCCCCCCCCCCC (stereo partly shown) [compound 3-10] | selectively induced production of IFN-γ in larger amounts | larger amount of IFN-γ than α-GalCer | larger amount of IFN-γ than α-GalCer and carba-glycolipid A | selectively induced production of IFN-γ in larger amounts | – |
| CCCCCCCCCCCCCCCCCCCCCCCCCC(=O)N[C@@H](CO[C@H]1OC(COC)[C@H](O)[C@H](O)C1O)[C@H](O)[C@H](O)CCCCCCCCCCCCCC (stereo partly shown) [compound 2-9] | selectively induced production of IFN-γ in larger amounts | larger amount of IFN-γ than α-GalCer; also recorded: most strongly | larger amount of IFN-γ than α-GalCer and carba-glycolipid A; also recorded: most strongly | selectively induced production of IFN-γ in larger amounts | IL-12(p70) production level in serum as compared with α-GalCer [3]: up to 4 fold; IFN-γ production level in serum compared with α-GalCer ([1]; Experimental Example 3, compound 2-9 at 2 to 0.0002 μg/mouse, α-GalCer 2 μg/mouse, FIG. 5): larger amount of IFN-γ than α-GalCer even by administration at a lower concentration; Selective induction of IFN-γ production compared to α-GalCer ([1]; Experimental Example 3, lower doses of compound 2-9): selectively induced production of IFN-γ in larger amounts; IL-4 production level in serum [4]: decreased as the dose of compound 2-9 was reduced |
| CCCCCCCCCCCCCCCCCCCCCCCCCC(=O)N[C@@H](CO[C@H]1OC(CC)[C@H](O)[C@H](O)C1O)[C@H](O)[C@H](O)CCCCCCCCCCCCCC (stereo partly shown) [compound 3-4] | selectively induced production of IFN-γ in larger amounts | larger amount of IFN-γ than α-GalCer | larger amount of IFN-γ than α-GalCer and carba-glycolipid A | selectively induced production of IFN-γ in larger amounts | – |
| CCCCCCCCCCCCCCCCCCCCCCCCCC(=O)N[C@@H](CO[C@H]1CC(CO)[C@H](O)C(O)C1O)[C@H](O)[C@H](O)CCCCCCCCCCCCCC (stereo partly shown) [carba-glycolipid A] | – | – | – | – | Activity on human NKT cells in vitro [5]: strong activity; Induction of IFN-γ production by NKT cells [6]: strongly induces IFN-γ production |
